Reference: patent US20260275295A1, “LIVER ORGANOIDS WITH INTRAHEPATIC SYMPATHETIC NERVES AND METHODS OF USE THEREOF” (CHILDREN'S HOSPITAL MEDICAL CENTER, priority 2023, published 2026)

Assays:
[1] = system: human liver organoids (HLOs); assay: generation of neural crest cells and sympathetic neurons in HLOs (real-time PCR, whole mount immunostaining, flow cytometry); assay type: cell-based
[2] = system: human liver organoids (HLOs); assay: albumin (ALB) secretion of HLOs; assay type: cell-based
[3] = system: adrenergic receptor signaling; assay: intracellular cAMP levels in human liver organoids; assay type: cell-based; settings: compared to untreated organoids
Description: The sympathetic neurons, or sympathetic nerves, in human liver organoids were ablated by 6-hydroxydopamine (6-OHDA), a sympathetic-specific toxin, and the intracellular levels of cyclic AMP (CAMP), a second messenger of adrenergic receptors in human liver organoids, were measured.

[4] = system: HLO derived from two different iPS lines; assay: amount of TH+ cells in OA-treated HLO (NASH model); assay type: cell-based, human; settings: OA treatment
From the text: FIG. 25 depicts the effect of OA treatment in increasing the amount of TH+ cells in HLO derived from two different iPS lines, showing an increase in innervation in a NASH model.
• 1. The distribution of sympathetic nerves projected to the liver is very different in humans as compared to experimental model animals, such as mice and rats. The presently described sympathetic neuron-containing human liver organoid model is expected to elucidate the distinctive mechanisms and timing of intrahepatic sympathetic projections during human liver development. • 2. Although it has been reported that sympathetic nerves contribute to the development and function of multiple organs, little is known regarding sympathetic nerves in the liver. This model leads to the identification of sympathetic effects on human liver development and the elucidation of their mechanisms of action. The model can also enable construction of enhanced (or mature) liver organoids by artificially regulating sympathetic nerve activity. • 3. The sympathetic nervous system has been reported to regulate gluconeogenesis in humans, but the mechanism by which it is promoted is unknown. Using this model, the mechanisms of human hepatic sympathetic innervation in gluconeogenesis can be elucidated. • 4. […] This model will allow us to identify the role of sympathetic nerves and their mechanisms in liver diseases. […]

human liver organoids = assay: RT-qPCR of gluconeogenesis, lipogenesis and cytokine genes in liver organoids; assay type: cell-based
[5] = system: hepatocytes of human liver organoids; assay: TG accumulation in hepatocytes of organoids, live cell imaging with BODIPY 493/503; assay type: cell-based
Description: Next, it was determined whether sympathetic neurons, or sympathetic nerves, in human liver organoids contribute to lipid accumulation in hepatocytes. After treatment with 6-OHDA, triglyceride (TG) in hepatocytes of the organoids were measured by live cell imaging using BODIPY 493/503, a fluorescent probe for TG, and the accumulation of TG in hepatocytes of 6-OHDA-treated and untreated organoids was compared. TG accumulation in hepatocytes of 6-OHDA-treated organoids was about twice that of untreated organoids (FIG. 8A). In addition, TG accumulation in hepatocytes of organoids treated with 6-OHDA and then exposed to oleic acid (OA) for 3 days was about 3-fold higher than that of OA-only treated organoids (FIG. 8A).

[6] = system: human liver organoids (HLOs); assay: gene expression of liver markers / liver induction in HLOs; assay type: cell-based
foregut spheroids = assay: real-time PCR of neural crest markers in foregut spheroids; assay type: cell-based, human; settings: 250 nM, 500 nM, or 1000 nM for 72 hours D3 to D6, PCR on D6
Description: (§1) Foregut spheroids were treated with 250 nM, 500 nM, or 1000 nM of the BMP inhibitor LDN193189 for 72 hours from day 3 (D3) to day 6 (D6) of differentiation, and real-time PCR quantification was performed on D6. […] (FIG. 12). […] (FIG. 15A).

[7] = system: human liver organoids (HLOs); assay: generation of neural crest cells and sympathetic neurons in HLOs (real-time PCR, whole mount immunostaining, flow cytometry); assay type: cell-based; remark: listed apart in the source
Description: as §1

[8] = system: human liver organoids (HLOs); assay: immunostaining and cell volume analysis of TUBB3+ and TH+ nerves in HLOs; assay type: cell-based
Description: Single cell RNA sequencing (scRNAseq) and real-time PCR quantification of gene expression were performed in day 20 (D20) liver organoids, and it was noted that the neuron attractive factor BDNF was highly expressed in hepatic stellate-like cells of the liver organoids. (FIG. 13). HLOs were treated with and without 1 μM BDNF inhibitor ANA12 for 5 days from day 15 (D15) to day 20 (D20) of differentiation induction. […] (FIG. 14). […] HLOs were treated with and without 100 nM of BDNF for 13 days from day 15 (D15) to day 28 (D28) of differentiation induction.

[9] = SB alone, 10 μM, days 3-6, listed as SB
[10] = RT-qPCR, 6-OHDA treated organoids vs control
[11] = steatosis conditions (oleic acid), relative to those not treated with 6-OHDA

In the case of `Cc1c[nH]c(-c2cnc(NCCNc3ccc(C#N)cn3)nc2-c2ccc(Cl)cc2Cl)n1` [CHIR], the “TUBB3+ neurons and SOX10 neural crest cells compared to LDN alone” value ([1]; 3 μM CHIR instead of 2 μM, with 250 nM LDN, days 3-6) is reported as “more and More”.

In the case of `NC(=O)c1ccc(-c2nc(-c3ccc4c(c3)OCO4)c(-c3ccccn3)[nH]2)cc1` [SB431542], the albumin secretion ([2]; SB431542 (10 μM) in addition to LDN (250 nM), days 3-6) is reported as “minimal”, the “neural crest cells and TUBB3/TH+ neurons detected” value ([1]; 10 μM SB431542 with 250 nM LDN193189, days 3-6) is reported as “detected earlier (day 15) and more frequently than in the other conditions” and the “TUBB+/TH+ sympathetic innervation” value ([1]; SB431542 in addition to LDN, Day 3-Day 6, LDN alone had not yet developed innervation on day 15) is reported as “extensive TUBB+/TH+ sympathetic innervation was formed around day 15”. The TH signal ([1]; SB alone, 10 μM, days 3-6) was “no TH signal was observed”, the “TUBB3-positive cells / TUBB3+ innervation” value ([1]; SB alone, 10 μM, days 3-6) was “appeared” and the “expression of the parasympathetic marker CHAT” value ([1]; SB alone, 10 μM, days 3-6) was “detected in some TUBB3+ nerves”. The “TUBB3-positive cells / TUBB3+ innervation” value [1, 9] was “observed” and the “expression of the parasympathetic marker CHAT” value [1, 9] was “detected in some cells”.

In the case of `CC(C)NCC(O)c1ccc(O)c(O)c1` (centres unmarked) [isoproterenol], the “concentration of cAMP” value [3] is reported as “increased”.

For `CCCCCCCC/C=C\CCCCCCCC(=O)O` [OA, oleic acid], the “amount of TH+ cells in HLO” value [4] was “increasing”.

`NCCc1cc(O)c(O)cc1O` [6-OHDA, 6-hydroxydopamine] was tested, and the “concentration of cAMP” value [3] was “significantly decreased”, the “expression of CD36” value (human liver organoids; [10]) was “increased expression” and the “expression of G6PC” value (human liver organoids; [10]) was “increased expression”. For the same molecule, the “expression of PCK1” value (human liver organoids; [10]) was “increased expression”, the “expression of SCD” value (human liver organoids; [10]) was “increased expression” and the “expression of CXCL8 (IL8)” value (human liver organoids; [11]) was “increased expression”. The “expression of TNF” value (human liver organoids; [11]) was “increased expression”, the “TG accumulation in hepatocytes” value ([5]; 6-OHDA then oleic acid (OA) for 3 days, vs OA-only treated organoids) was “about 3 fold” and the “TG accumulation in hepatocytes” value ([5]; 6-OHDA-treated vs untreated organoids) was “about twice”.

In the case of `c1ccc2c(-c3cnn4cc(-c5ccc(N6CCNCC6)cc5)cnc34)ccnc2c1` [LDN193189], the “gene expression level of liver marker HNF4A” value ([6]; 250 nM, 500 nM, 1000 nM) is reported as “decrease in a LDN concentration-dependent manner”, the “gene expression level of liver marker albumin (ALB)” value ([6]; 250 nM, 500 nM, 1000 nM) is reported as “decrease in a LDN concentration-dependent manner” and the “gene expression of liver marker ALB” value ([6]; 250 nM, days 3-6) is reported as “reduced”. The “gene expression of liver marker HNF4A” value ([6]; 250 nM, days 3-6) was “reduced”, the “induction to the liver” value ([6]; timing of addition changed from Day 3-6 to Day 6-10) was “improves induction to the liver” and the “expression of neural crest marker FOXD3” value (foregut spheroids) was “increased expression”. The “expression of neural crest marker NGFR” value (foregut spheroids) was “increased expression”, the “expression of neural crest marker SOX10” value (foregut spheroids) was “increased expression” and the “neural crest cells and TUBB3/TH+ neurons detected” value ([7]; 250 nM, days 3-6) was “high frequency”. For the same molecule, the “induction of neural crest cells and TH/TUBB+ sympathetic neurons” value ([7]; 250 nM, days 3 to 6) was “optimal concentrations”, the “induction of neural crest cells and TH/TUBB+ sympathetic neurons” value ([7]; 500 nM, days 3 to 6) was “optimal concentrations” and the “TH/TUBB+ sympathetic neurons” value ([7]; 1000 nM, days 3 to 6) was “reduced”. The “production of neural crest cells” value ([7]; 1000 nM, days 3 to 6) was “reduced”, the “creation of sympathetic neurons, or sympathetic nerves” value ([7]; LDN 250 (nM)) was “reproducibly” and the ALB secretion lower ([2]; 250 nM LDN193189 alone or in combination with 10 μM SB431542, days 6-10) was “about ⅓”. The ALB secretion ([2]; 250 nM, days 3-6) was “reduced”, the “albumin secretion compared to existing HLOs” value ([2]; 250 nM, days 3-6) was 30-40 fold lower and the “reduction of albumin secretion compared to conventional HLOs” value ([2]; addition Day 6-10) was “a third”. The detection of neurons ([1]; 250 nM LDN193189 alone or in combination with 10 μM SB431542, days 6-10, rate varies between batches) was “sometimes detected”, the “expression of autonomic marker ASCL1” value ([1]; HLOs on day 20, treated days 3-6, real-time PCR) was “increased” and the “frequency of sympathetic generation” value ([1]; addition Day 6-10) was “varies between batches”.

With `NC[C@H](O)c1ccc(O)c(O)c1` [noradrenaline] the “concentration of cAMP” value [3] was “increased”.

With `O=C(Nc1ccccc1C(=O)NC1CCCCNC1=O)c1cc2ccccc2s1` (centres unmarked) [ANA12] the “TH+ nerve production and elongation of nerves” value ([8]; 1 μM for 5 days, D15 to D20) was “suppressed TH+ nerve production and elongation of nerves”.

B1: BDNF: brain derived neurotrophic factor, neuron attractive factor (protein, UniProt P23560 19-247, looked up)
Neurotrophic factor BDNF …: APMKEANIRGQGGLAYPGVRTHGTLESVNGPKAGSRGLTSLADTFEHVIEELLDEDQKVRPNEENNKDADLYTSRVMLSSQVPLEPPLLFLLEEYKNYLDAANMSMRVRRHSDPARRGELSVCDSISEWVTAADKKTAVDMSGGTVTVLEKVPVSKGQLKQYFYETKCNPMGYTKEGCRGIDKRHWNSQCRTTQSYVRALTMDSKKRIGWRFIRIDTSCVCTLTIKRGR
In the case of B1, the “nerves (TUBB3 immunostaining)” value ([8]; 100 nM for 13 days, D15 to D28) is reported as “nerves tend to increase and elongate”.
